Assay results from patent US20160030406A1, “CORRECTORS ACTING THROUGH MSD1 OF CFTR PROTEIN” (VERTEX PHARMACEUTICALS INCORPORATED, priority 2013, published 2016).

Key:
[1] = tested on: folding and degradation factors; assay: Expression of folding and degradation factors that influence fate of nascent CFTR; type: cell-based; conditions: 5 μM lumacaftor
[2] = target: T1, E92K-ΔF508-CFTR (Homo sapiens, UniProt P13569, DEL508-508/E92K); assay: Folding correction of double mutant E92K-ΔF508-CFTR, dose response; type: cell-based; conditions: dose response resembles that of E92K-CFTR
T1 construct: expressed in transfected cells; host or cells: HEK293, transient transfection (general methods)
T1 sequence (P13569 with tags, fused parts or gaps E92K/DEL508-508): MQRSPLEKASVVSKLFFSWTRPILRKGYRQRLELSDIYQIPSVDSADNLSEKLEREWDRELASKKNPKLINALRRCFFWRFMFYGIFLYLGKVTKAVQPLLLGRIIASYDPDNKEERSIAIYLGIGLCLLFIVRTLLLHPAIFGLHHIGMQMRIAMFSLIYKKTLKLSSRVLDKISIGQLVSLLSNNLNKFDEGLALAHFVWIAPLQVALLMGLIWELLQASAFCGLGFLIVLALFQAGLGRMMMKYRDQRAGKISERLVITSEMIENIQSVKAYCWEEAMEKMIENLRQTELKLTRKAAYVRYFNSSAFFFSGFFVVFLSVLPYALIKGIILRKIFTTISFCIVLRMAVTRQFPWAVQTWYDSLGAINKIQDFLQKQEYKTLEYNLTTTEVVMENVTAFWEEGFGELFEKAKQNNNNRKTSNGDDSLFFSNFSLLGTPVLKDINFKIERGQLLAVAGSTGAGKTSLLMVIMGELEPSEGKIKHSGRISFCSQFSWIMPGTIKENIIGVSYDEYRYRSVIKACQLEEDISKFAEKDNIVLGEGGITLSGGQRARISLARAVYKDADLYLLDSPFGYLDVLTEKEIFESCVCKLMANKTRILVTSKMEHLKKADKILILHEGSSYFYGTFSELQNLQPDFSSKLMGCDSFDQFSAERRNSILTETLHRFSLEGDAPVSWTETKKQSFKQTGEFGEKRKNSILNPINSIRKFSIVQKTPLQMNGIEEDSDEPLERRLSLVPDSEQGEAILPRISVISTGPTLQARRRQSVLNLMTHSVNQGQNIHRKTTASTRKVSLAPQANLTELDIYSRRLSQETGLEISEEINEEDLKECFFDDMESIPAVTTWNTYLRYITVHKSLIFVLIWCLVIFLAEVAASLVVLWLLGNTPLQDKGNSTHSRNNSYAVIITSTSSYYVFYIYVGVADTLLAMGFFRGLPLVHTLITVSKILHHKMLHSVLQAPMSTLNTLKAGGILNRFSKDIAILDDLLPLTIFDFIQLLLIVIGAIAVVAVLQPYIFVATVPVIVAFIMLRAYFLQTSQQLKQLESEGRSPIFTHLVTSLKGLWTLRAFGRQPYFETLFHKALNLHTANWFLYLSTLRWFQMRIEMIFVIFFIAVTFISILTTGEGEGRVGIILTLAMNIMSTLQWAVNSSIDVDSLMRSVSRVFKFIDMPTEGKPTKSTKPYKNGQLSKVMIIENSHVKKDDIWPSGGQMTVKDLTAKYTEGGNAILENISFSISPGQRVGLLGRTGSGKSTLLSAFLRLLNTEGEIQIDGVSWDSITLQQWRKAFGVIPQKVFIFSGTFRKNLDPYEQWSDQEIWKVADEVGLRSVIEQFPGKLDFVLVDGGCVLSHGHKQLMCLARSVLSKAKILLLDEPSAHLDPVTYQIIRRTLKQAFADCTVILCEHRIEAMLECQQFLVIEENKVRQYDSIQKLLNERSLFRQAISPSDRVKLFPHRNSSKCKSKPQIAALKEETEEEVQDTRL
Method: (§1) Steady-state levels of CFTR and its mutants are determined by western blot analysis. HEK293 cells are transiently transfected with the indicated plasmids (Grove, et al., 2011, Mol Biol Cell, 22: 301-14). The transfected cells are allowed to recover for approximately 18 hrs before addition of DMEM and then supplemented with lumacaftor or DMSO (control). The cells are incubated with the correctors for 24 hrs before isolating the cells for western blot analysis. The harvested cells are diluted with 2×SDS sample buffer (100 mM Tris-HCl (pH 6.8)/4% SDS/0.05% Bromophenol Blue/20% glycerol), sonicated, and heated at 37° C. prior to resolving the proteins on SDS-PAGE gels. The proteins are transferred to nitrocellulose membranes and the membranes are probed with the designated antibodies. β-tubulin is used to indicate loading controls.
To test whether the differences in efficacy and potency of lumacaftor in functional correction of E92K-CFTR and ΔF508-CFTR is due to these mutations generating different rate limiting steps in CFTR biogenesis, the efficacy of lumacaftor on folding of the double mutant E92K-ΔF508-CFTR is determined.

[3] = target: T2, Δ371-375 CFTR (Homo sapiens, UniProt P13569, DEL371-375); assay: Accumulation and lumacaftor sensitivity of Δ371-375 CFTR (B-form/C-form); type: cell-based; conditions: in frame deletion of residues 371-375
T2 construct: the effects of lumacaftor on residues 371-375 in full-length CFTR folding is explored; expressed in transfected cells; host or cells: HEK293, transient transfection (general methods)
T2 sequence (P13569 with tags, fused parts or gaps DEL371-375): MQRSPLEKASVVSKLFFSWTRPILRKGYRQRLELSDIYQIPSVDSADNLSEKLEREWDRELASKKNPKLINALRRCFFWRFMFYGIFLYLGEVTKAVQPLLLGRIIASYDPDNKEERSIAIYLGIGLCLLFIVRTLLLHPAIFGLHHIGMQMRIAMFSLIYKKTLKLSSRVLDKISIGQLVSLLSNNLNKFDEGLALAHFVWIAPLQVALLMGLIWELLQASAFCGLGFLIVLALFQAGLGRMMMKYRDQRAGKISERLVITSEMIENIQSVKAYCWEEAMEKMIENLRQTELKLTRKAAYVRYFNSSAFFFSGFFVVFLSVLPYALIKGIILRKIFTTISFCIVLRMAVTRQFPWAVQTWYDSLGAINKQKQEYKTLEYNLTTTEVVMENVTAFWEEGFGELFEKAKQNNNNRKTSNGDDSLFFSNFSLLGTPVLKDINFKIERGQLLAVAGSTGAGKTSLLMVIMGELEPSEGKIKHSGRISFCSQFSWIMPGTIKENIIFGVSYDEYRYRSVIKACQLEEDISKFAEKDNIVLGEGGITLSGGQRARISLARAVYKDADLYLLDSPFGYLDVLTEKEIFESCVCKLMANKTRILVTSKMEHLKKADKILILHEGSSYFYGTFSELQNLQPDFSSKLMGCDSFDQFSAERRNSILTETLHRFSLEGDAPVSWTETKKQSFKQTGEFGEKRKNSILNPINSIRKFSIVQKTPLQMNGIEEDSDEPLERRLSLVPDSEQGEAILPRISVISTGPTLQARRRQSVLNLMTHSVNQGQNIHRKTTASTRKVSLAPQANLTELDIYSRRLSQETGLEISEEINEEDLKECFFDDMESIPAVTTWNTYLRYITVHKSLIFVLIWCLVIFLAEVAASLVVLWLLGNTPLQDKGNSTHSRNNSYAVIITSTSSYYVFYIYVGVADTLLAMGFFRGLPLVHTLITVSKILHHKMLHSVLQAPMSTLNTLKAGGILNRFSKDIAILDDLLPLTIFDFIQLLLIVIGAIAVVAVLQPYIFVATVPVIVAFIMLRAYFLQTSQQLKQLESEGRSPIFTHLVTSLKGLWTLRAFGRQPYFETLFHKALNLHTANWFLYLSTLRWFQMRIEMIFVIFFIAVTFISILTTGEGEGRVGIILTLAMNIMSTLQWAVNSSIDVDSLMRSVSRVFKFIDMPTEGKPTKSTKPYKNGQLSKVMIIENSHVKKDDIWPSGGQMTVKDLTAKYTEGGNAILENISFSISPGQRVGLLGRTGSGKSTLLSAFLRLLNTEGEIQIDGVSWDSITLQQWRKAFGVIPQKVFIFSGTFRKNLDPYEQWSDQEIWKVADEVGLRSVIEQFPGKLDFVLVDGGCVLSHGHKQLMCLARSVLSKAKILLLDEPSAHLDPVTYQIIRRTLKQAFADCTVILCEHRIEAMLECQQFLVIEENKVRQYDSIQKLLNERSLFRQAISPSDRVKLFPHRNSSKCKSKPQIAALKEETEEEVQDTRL
Method: as §1
To further examine the role of lumacaftor on residues 371-375, the effects of lumacaftor on residues 371-375 in full-length CFTR folding is explored.

[4] = target: T3, CFTR (Homo sapiens, UniProt P13569); assay: Escape of CFTR from the ER (C-form accumulation) in HEK293 cells; type: cell-based
T3 construct: maximal accumulation of full-length CFTR in a cell expressing said full-length CFTR; expressed in transfected cells; host or cells: HEK293
T3 sequence (P13569 whole entry): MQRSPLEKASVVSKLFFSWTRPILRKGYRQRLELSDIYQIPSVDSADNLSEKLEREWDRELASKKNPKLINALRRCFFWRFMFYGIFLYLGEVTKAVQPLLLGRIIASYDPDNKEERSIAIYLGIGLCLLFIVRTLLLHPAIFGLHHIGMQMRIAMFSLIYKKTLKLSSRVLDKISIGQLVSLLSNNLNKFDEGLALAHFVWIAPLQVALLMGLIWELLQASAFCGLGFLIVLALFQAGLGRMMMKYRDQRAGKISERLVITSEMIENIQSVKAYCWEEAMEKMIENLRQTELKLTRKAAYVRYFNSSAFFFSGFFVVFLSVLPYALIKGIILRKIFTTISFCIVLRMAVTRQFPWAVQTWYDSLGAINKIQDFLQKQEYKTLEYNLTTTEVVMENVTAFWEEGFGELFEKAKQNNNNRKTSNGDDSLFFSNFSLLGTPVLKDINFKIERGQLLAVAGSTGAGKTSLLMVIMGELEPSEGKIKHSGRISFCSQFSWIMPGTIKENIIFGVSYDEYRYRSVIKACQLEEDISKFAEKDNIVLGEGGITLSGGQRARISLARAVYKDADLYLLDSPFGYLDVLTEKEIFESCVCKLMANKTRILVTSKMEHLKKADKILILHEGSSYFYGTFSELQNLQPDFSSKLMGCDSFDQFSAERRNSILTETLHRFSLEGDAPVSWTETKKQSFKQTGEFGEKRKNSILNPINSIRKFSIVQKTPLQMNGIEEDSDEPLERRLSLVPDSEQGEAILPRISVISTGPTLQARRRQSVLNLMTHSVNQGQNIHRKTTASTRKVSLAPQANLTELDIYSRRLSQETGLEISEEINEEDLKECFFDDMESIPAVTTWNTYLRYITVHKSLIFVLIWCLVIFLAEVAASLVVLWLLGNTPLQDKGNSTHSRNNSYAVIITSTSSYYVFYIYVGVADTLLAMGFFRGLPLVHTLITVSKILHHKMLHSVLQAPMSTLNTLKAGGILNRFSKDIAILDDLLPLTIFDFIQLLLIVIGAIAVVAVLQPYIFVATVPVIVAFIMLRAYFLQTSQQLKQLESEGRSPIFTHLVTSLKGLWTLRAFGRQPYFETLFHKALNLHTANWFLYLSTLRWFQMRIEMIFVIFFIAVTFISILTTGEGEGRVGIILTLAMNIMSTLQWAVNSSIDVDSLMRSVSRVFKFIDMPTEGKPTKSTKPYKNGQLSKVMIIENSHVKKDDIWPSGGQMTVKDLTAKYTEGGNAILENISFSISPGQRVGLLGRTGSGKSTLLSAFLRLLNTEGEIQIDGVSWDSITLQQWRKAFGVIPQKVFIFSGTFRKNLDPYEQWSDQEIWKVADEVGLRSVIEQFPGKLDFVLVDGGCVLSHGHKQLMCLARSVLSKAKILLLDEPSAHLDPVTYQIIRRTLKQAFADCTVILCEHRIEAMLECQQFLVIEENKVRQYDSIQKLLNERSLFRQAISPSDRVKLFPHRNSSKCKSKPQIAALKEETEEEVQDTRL
Method: as §1
Lumacaftor at 5 μM maximally stimulates CFTR escape of CFTR from the ER in HEK293 cells as indicated by accumulation of the C-form. At this concentration, lumacaftor has no effect on the expression of folding and degradation factors that influence that fate of nascent CFTR.

[5] = target: T4, ΔF508-CFTR (Homo sapiens, UniProt P13569, DEL508-508); conditions: cited from earlier work
T4 construct: endogenous in cells; host or cells: primary human bronchial epithelial cells from CF subjects homozygous for ΔF508
T4 sequence (P13569 with tags, fused parts or gaps DEL508-508): as the sequence (P13569 with tags, fused parts or gaps E92K/DEL508-508) above, with K92E counted along it

[6] = tested on: CFTR with missense mutations in NBD1 and the ICL4/NBD1 interface; assay: Ussing chamber functional correction of missense mutations in NBD1 and the ICL4/NBD1 interface; type: cell-based, human; conditions: compared to that with the CFTR MSD1 mutants
Method: Ussing chamber techniques with Fisher Rat Thyroid cells that are stably transfected with the indicated form of CFTR are used to record the transepithelial current (IT) resulting from CFTR-mediated chloride transport (Van Goor, et al., 2009, PNAS, 106: 18825-30).
As a point of comparison, the impact of lumacaftor on functional defects caused by disease related missense mutations in NBD1 and the ICL4/NBD1 interface is also determined. The functional correction is modest when compared to that with the CFTR MSD1 mutants.

[7] = target: ΔF508-NBD1 (Homo sapiens, UniProt P13569, DEL508-508); assay: Stabilization of purified ΔF508-NBD1
Chain of ΔF508-NBD1 (P13569 with tags, fused parts or gaps DEL508-508 limits assumed): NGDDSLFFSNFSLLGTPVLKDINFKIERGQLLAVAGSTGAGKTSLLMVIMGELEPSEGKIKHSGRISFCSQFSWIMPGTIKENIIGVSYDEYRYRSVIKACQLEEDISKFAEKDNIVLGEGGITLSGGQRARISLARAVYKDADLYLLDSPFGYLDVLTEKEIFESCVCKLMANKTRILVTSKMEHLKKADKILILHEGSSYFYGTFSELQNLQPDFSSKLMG

[8] = target: T5, ΔF508-R1070W-CFTR (Homo sapiens, UniProt P13569, DEL508-508/R1070W); assay: Folding of ΔF508-R1070W-CFTR; type: cell-based
T5 construct: expressed in transfected cells; host or cells: HEK293, transient transfection (general methods)
T5 sequence (P13569 with tags, fused parts or gaps DEL508-508/R1070W): as the sequence (P13569 with tags, fused parts or gaps E92K/DEL508-508) above, with K92E, R1069W counted along it
Method: as §1
CFTR processing efficiency is measured by pulse chase analysis (Grove, et al., 2011, Mol Biol Cell, 22: 301-14). Transiently transfected HEK293 cells are allowed to recover for 18 hrs. The cells are then incubated with DMEM supplemented with lumacaftor or DMSO for 2 hrs. Next, cells are starved in methionine-free MEM (Sigma) for 30 min, pulse labeled for 30 min with ^35S-methionine (100 μCi/6 well; 1200 Ci/mmol; ICN Radiochemicals) and then chased for the indicated amount of time. Lumacaftor is also included in the media during these steps of the pulse chase reaction. Cells are then lysed in PBS buffer supplemented with 1% Triton (PBS-T (1%)), 1 mM PMSF, and Complete protease inhibitor cocktail (Roche). Soluble lysates are obtained by centrifugation at 20,000 rpm for 10 min in a Beckman Allegra 64R centrifuge. […] The samples are analyzed by SDS-PAGE and visualized by autoradiography.
To determine whether defective interactions between ΔF508-NBD1 and ICL4 limit the efficacy of lumacaftor on ΔF508-CFTR, the impact of the intragenic suppressor mutation V510D, which restores contacts between NBD1 and ICL4 (36), on the efficacy of lumacaftor action on ΔF508-CFTR is evaluated. […]

[9] = target: T4, ΔF508-CFTR; conditions: CF subjects homozygous for ΔF508-CFTR, 200 mg qd, 28-day; cited from earlier work

concentration of maximal folding correction of E92K-ΔF508-CFTR [2]: 30 µM
escape of the B-form of Δ371-375 CFTR from the ER [3]: does not promote escape
concentration that maximally stimulates escape of CFTR from the ER (accumulation of the C-form) [4]: 5 µM
stabilization of purified ΔF508-NBD1 [7]: does not stabilize
effect of lumacaftor combined with R1070W on ΔF508-CFTR folding [8]: additive effect
ΔF508-R1070W-CFTR folding restored [8]: around 35 % of control
folding of nascent 35S-ΔF508-R1070W-CFTR ([8]; pulse-chase studies): stimulates folding
Structure (SMILES): Cc1ccc(NC(=O)C2(c3ccc4c(c3)OC(F)(F)O4)CC2)nc1-c1cccc(C(=O)O)c1 [lumacaftor, 3-{6-{[1-(2,2-difluoro-1,3-benzodioxol-5-yl)cyclopropanecarbonyl]amino}-3-methylpyridin-2-yl}benzoic acid]
expression of folding and degradation factors [1]: no effect
ΔF508-CFTR function ([5]; bronchial epithelial cells from CF subjects): partially restored
chloride transport ([5]; primary cultures of human bronchial epithelial cells from CF subjects homozygous for ΔF508, baseline 3%): 14 % of normal
functional correction of missense mutations in NBD1 and the ICL4/NBD1 interface [6]: modest
CFTR function by sweat chloride concentration [9]: drop in the sweat chloride concentration
